Here are results for 5 molecules from patent US20060111286A1, “Method of modulating endothelial cell activity” (priority 2002, published 2006).

Entries after “also recorded” stand apart in the source; their conditions may differ. Where two headings read alike, the source gives them in different places.

Experiment [1] deals with human umbilical vein endothelial cells. Description: Endothelial permeability assay: passage of FITC-conjugated dextran through thrombin-treated endothelial cell monolayers in transwells. The format is cell-based. The following applies: then thrombin 0.2 U/ml. How it is done: Cells were used at passage 4 or less. For infection with adenoviral constructs, cells were grown to 80% confluence and exposed to 2.5×10^6 plaque forming units/25 cm^2 culture area for 2 hours in M119 medium with 2% FCS and a further 22 hours with 20% FCS.
Endothelial cells (10^5) were cultured in transwells (3 μ-pore size, Corning Costar Corp, Cambridge, Mass., USA) for 24 hours in complete medium and then in 2% FCS medium for a further 24 hours. Cells were pre-treated with either bisindolylmaleimide I (10 nM or 6 μM), Calphostin C (100 nM), chelerythrine chloride (1 μM), H-89 (50 nM) or angiopoietin-1 (0.1 μg/ml), as required. FITC-conjugated dextran (0.2 μg) was added to the upper chamber of all wells and cells were then treated with thrombin (0.2 U/ml). […] Adenovirus infected ECs were plated on to transwells 24 hours after the above infection procedure and treated in the same manner as uninfected cells.

In experiment [2] the test system is protein kinase Cζ. Description: Immunoblotting for phosphorylated Thr410 of over-expressed protein kinase Cζ in endothelial cells. The note with it: for effect on thrombin stimulated protein kinase Cζ phosphorylation (Thr410): then thrombin 0.2 U/ml, FLAG-protein kinase Cζ over-expressing cells. The experiment is classed as cell-based, human. How it is done:
(§1) Human umbilical vein endothelial cells were grown in M119 medium with 20% foetal calf serum (FCS) as described (Litwin, M., Clark, K., Noack, L., Furze, J., Berndt, M., Albelda, S., Vadas, M., Gamble, J. (1997) J Cell Biol. 139:219-28). Cells were used at passage 4 or less. For infection with adenoviral constructs, cells were grown to 80% confluence and exposed to 2.5×10^6 plaque forming units/25 cm^2 culture area for 2 hours in M119 medium with 2% FCS and a further 22 hours with 20% FCS.
Endothelial cells were plated into fibronectin coated flasks before infection as above. Following infection, cells were serum depleted (0.2% FCS) overnight. Cells were then treated with angiopoietin-1, thrombin and/or bisindolylmaleimide I, as required, lysed in ice-cold lysis buffer (50 mM Tris.HCl, pH 7.4, with 1% NP-40, 150 mM NaCl, 2 mM EGTA, 1 mM NaPO4, 100 mM NaF, 10 mM sodium pyrophosphate and protease inhibitor cocktail). Protein concentrations were assayed using Bradford Reagent (BioRad, Hercules, Calif., USA). Equal amounts of protein were loaded onto 10% acrylamide gels, separated by SDS-PAGE, transferred to PVDF membrane, blocked with 5% skim milk powder and 0.1% Triton-X100 in phosphate buffered saline, and probed with a polyclonal rabbit antibody directed against phosphorylated Thr410 of the activation loop of protein kinase Cζ (Chou, M. M., Hou, W., Johnson, J., Graham, L. K., Lee, M. H., Chen, C. S., Newton, A. C., Schaffhausen, B. S., Toker, A. (1998) Curr Biol. 8:1069-77). This antibody was a generous gift from Dr Alex Toker. After washing, membranes were incubated with anti-rabbit secondary antibody and reactive bands were detected by chemiluminescence (ECL Western Blotting Detection Reagents, Amersham Pharmacia Biotech, Little Chalfont, England, UK). Membranes were stripped using stripping buffer (Re-Blot Plus Western Blot Recycling Kit, Chemicon, Temecula Calif., USA) and re-probed with rabbit anti-protein kinase Cζ immunoaffinity purified IgG (Upstate Biotechnology, Lake Placid N.Y., USA).
In general terms: Immunoblotting shows a protein as a band on a membrane.

Experiment [3] deals with protein kinase Cλ. Put plainly: Immunofluorescence staining of protein kinase Cλ localisation in endothelial cell monolayers. The following applies: thrombin 0.2 U/ml alone, confluent monolayers. The format is cell-based, human. How it is done:
as §1
6×10^4 endothelial cells were cultured in fibronectin coated glass LabTek chamber slides (Nalge Nunc International, Naperville, Ill., USA) and incubated for 3 days prior to staining. Cells were then treated with angiopoietin-1, thrombin and/or bisindolylmaleimnide I, as required. Cells were washed once in PBS, fixed in 4% paraformnaldehyde/PBS for 5 minutes, permeabilized with acetone for 5 min at −20° C. and then washed twice with PBS. The fixed cells were incubated with rabbit anti-protein kinase Cζ immunoaffmity purified IgG or anti-protein kinase Cλ (BD Transduction Laboratories, San Diego, Calif., USA) overnight at 4° C. followed by FITC-conjugated anti-rabbit antibody (Rockland, Gilbertsville Pa., USA). Coverslips were mounted using fluorescent microscopy mounting medium (Dako Corp., Carpinteria, Calif., USA). […]

Experiment [4] deals with protein kinase Cζ. Description: Immunofluorescence staining of protein kinase Cζ localisation in endothelial cell monolayers. The format is cell-based, human. The following applies: for effect on thrombin stimulated protein kinase Cζ relocalisation to the membrane: then thrombin 0.2 U/ml. How it is done: as §1
6×10^4 endothelial cells were cultured in fibronectin coated glass LabTek chamber slides (Nalge Nunc International, Naperville, Ill., USA) and incubated for 3 days prior to staining. Cells were then treated with angiopoietin-1, thrombin and/or bisindolylmaleimnide I, as required. Cells were washed once in PBS, fixed in 4% paraformnaldehyde/PBS for 5 minutes, permeabilized with acetone for 5 min at −20° C. and then washed twice with PBS. The fixed cells were incubated with rabbit anti-protein kinase Cζ immunoaffmity purified IgG or anti-protein kinase Cλ (BD Transduction Laboratories, San Diego, Calif., USA) overnight at 4° C. followed by FITC-conjugated anti-rabbit antibody (Rockland, Gilbertsville Pa., USA). Coverslips were mounted using fluorescent microscopy mounting medium (Dako Corp., Carpinteria, Calif., USA). Cells were imaged by epifluorescent microscopy on an Olympus BX-51 microscope (Olympus, Hamburg, Germany) equipped with excitation filters for fluorescein (494 nm) acquired to a Photometrics Cool Snap FX charge-coupled device camera (Roper Scientific GmbH, Germany). Images were adjusted for brightness and contrast using V^++ software (Digital Optics Ltd., Aucldand, New Zealand).

For experiment [5], the system named is protein kinase C isoforms. The following applies: cited from earlier work.

`O=S(=O)(NCCNC/C=C/c1ccc(Br)cc1)c1cccc2cnccc12` [H-89]: in experiment [1] (50 nM, pre-treated 15 mins), the “effect on thrombin stimulated endothelial cell permeability increase” value was “has no effect on thrombin induced permeability changes; also recorded: has no effect on thrombin-stimulated permeability increases”.
Consider Thrombin, for which the “phosphorylation of over-expressed protein kinase Cζ (Thr410)” value in experiment [2] (thrombin 0.2 U/ml for 15 minutes alone) is given as “increased the phosphorylation of over-expressed protein kinase Cζ”. For the same molecule, the “protein kinase Cλ localisation” value in experiment [3] is on record as “remained evenly distributed”. Also, the “protein kinase Cζ localisation” value in experiment [4] (thrombin 0.2 U/ml alone, confluent monolayers) was “localized to the cell membrane”.
For Calphostin C, in experiment [1] (100 nM, pre-treated 15 mins), the “effect on thrombin stimulated endothelial cell permeability increase” value is on record as “had no effect on the thrombin-induced increases of endothelial cell permeability; also recorded: does not block thrombin-stimulated permeability increases”.
As for `CN(C)CCCn1cc(C2=C(c3c[nH]c4ccccc34)C(=O)NC2=O)c2ccccc21.Cl` [bisindolylmaleimide I, Bisindolylmaleimide I hydrochloride], the “protein kinase C isoforms inhibited” value in experiment [5] (100 nM) is “inhibits classical and novel protein kinase C isoforms”; in experiment [5] (6 μM) it was “inhibits all protein cinase C isoforms”. For the same molecule, the “effect on thrombin stimulated protein kinase Cζ phosphorylation (Thr410)” value in experiment [2] (6 μM for 15 minutes) is “inhibited thrombin stimulated protein kinase Cζ phosphorylation”. Further, the “effect on thrombin stimulated endothelial cell permeability increase” value in experiment [1] (100 nM, pre-treated 15 mins) is listed as “had no effect on the thrombin-induced increases of endothelial cell permeability”; in experiment [1] (6 μM, pre-treated 15 mins, hydrochloride) it was “inhibited thrombin stimulation of endothelial cell permeability”; in experiment [1] (6 μM, pre-treated 15 mins, listed as Bisindolylmaleimide I, hydrochloride) it was “blocks thrombin-stimulated permeability increases”. Further, the “effect on thrombin stimulated protein kinase Cζ relocalisation to the membrane” value in experiment [4] (6 μM for 15 minutes) was “dramatically decreased”.

B1: Angiopoietin-1 (protein, UniProt Q15389 16-498, looked up)
Angiopoietin-1: HIGCSNQRRSPENSGRRYNRIQHGQCAYTFILPEHDGNCRESTTDQYNTNALQRDAPHVEPDFSSQKLQHLEHVMENYTQWLQKLENYIVENMKSEMAQIQQNAVQNHTATMLEIGTSLLSQTAEQTRKLTDVETQVLNQTSRLEIQLLENSLSTYKLEKQLLQQTNEILKIHEKNSLLEHKILEMEGKHKEELDTLKEEKENLQGLVTRQTYIIQELEKQLNRATTNNSVLQKQQLELMDTVHNLVNLCTKEGVLLKGGKREEEKPFRDCADVYQAGFNKSGIYTIYINNMPEPKKVFCNMDVNGGGWTVIQHREDGSLDFQRGWKEYKMGFGNPSGEYWLGNEFIFAITSQRQYMLRIELMDWEGNRAYSQYDRFHIGNEKQNYRLYLKGHTGTAGKQSSLILHGADFSTKDADNDNCMCKCALMLTGGWWFDACGPSNLNGMFYTAGQNHGKLNGIKWHYFKGPSYSLRSTTMMIRPLDF
notes: Angiopoietin-1, obtained from Regeneron Inc
In the case of B1, in experiment [2] (0.1 μg/ml for 30 minutes), the “effect on thrombin stimulated protein kinase Cζ phosphorylation (Thr410)” value was “inhibited thrombin stimulated protein kinase Cζ phosphorylation; also recorded: blocking thrombin stimulated protein kinase Cζ phoshorylation”. Also, the “effect on thrombin stimulated endothelial cell permeability increase” value is given as “inhibiting thrombin stimulated endothelial cell permeability increases” in experiment [1] (0.1 μg/ml, pre-treated 30 min) and “can inhibit the thrombin-induced increase of endothelial cell permeability” in experiment [1] (0.1 μg/ml, pre-treated 30 min, listed as Angiopoietin-1). Moreover, the “effect on thrombin stimulated protein kinase Cζ relocalisation to the membrane” value in experiment [4] (0.1 μg/ml for 30 minutes) is given as “dramatically decreased; also recorded: blocking thrombin stimulated protein kinase Cζ relocalisation”.
